Paper PMC9329436, “Optimization of the 4-anilinoquin(az)oline scaffold as epidermal growth factor receptor (EGFR) inhibitors for chordoma utilizing a toxicology profiling assay platform” (Scientific Reports, 2022)
Where two headings read alike, the source gives them in different places.

Columns and labels:
Format in all cases: biochemical
[1] = target: 320 wild-type protein kinases (Homo sapiens, UniProt P00519); conditions: singlicate
Description: (§1) Table S4. Profiling of two compounds at two concentrations against 320 wild-type protein kinases; singlicate measurement; Residual activities (% of control).

[2] = target: 320 wild-type protein kinases (Homo sapiens, UniProt P23458); conditions: JAK1 aa583-1154 wt, singlicate
Description: as §1

[3] = target: T1, 320 wild-type protein kinases (Homo sapiens, UniProt P29320); conditions: singlicate
T1 sequence (P29320 21-983): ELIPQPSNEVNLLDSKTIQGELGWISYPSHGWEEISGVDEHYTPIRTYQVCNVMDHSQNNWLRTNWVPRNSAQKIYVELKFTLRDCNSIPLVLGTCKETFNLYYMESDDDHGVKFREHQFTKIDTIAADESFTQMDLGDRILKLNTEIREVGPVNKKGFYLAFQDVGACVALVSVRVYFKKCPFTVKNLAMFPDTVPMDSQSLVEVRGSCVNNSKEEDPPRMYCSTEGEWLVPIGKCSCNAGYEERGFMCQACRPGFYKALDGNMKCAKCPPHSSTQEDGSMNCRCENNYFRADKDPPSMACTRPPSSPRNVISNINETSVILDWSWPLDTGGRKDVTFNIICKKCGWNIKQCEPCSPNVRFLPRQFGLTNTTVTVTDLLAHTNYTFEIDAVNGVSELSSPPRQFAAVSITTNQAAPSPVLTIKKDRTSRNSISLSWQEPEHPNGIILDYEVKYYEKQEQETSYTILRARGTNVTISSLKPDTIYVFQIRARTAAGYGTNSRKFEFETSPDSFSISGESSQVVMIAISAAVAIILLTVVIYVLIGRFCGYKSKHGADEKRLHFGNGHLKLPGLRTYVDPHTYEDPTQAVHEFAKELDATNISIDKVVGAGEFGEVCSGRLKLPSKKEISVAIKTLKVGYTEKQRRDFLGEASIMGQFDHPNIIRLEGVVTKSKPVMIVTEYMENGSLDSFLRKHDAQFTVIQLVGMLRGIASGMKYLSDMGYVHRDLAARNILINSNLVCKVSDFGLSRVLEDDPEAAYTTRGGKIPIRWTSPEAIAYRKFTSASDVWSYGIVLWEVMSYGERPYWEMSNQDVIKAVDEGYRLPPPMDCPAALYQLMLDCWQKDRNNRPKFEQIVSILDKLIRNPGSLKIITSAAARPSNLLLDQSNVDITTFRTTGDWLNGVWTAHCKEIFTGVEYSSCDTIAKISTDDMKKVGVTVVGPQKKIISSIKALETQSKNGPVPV
Description: as §1

[4] = target: 320 wild-type protein kinases (Homo sapiens, UniProt P78368); conditions: singlicate
Description: as §1

[5] = target: 320 wild-type protein kinases (Homo sapiens, UniProt Q00536); conditions: CDK16/CycY, singlicate
Description: as §1

[6] = target: 320 wild-type protein kinases (Homo sapiens, UniProt Q02779); conditions: singlicate
Description: as §1

[7] = target: 320 wild-type protein kinases (Homo sapiens, UniProt Q13554); conditions: CAMK2B, singlicate
Description: as §1

[8] = target: 320 wild-type protein kinases (Homo sapiens, UniProt Q6IQ55); conditions: kinase TTBK2, singlicate
Description: as §1

[9] = target: 320 wild-type protein kinases (Homo sapiens, UniProt Q8IU85); conditions: CAMK1D, singlicate
Description: as §1

[10] = target: T2, 320 wild-type protein kinases (Homo sapiens, UniProt Q8TD08); conditions: singlicate
T2 sequence (Q8TD08 1-544): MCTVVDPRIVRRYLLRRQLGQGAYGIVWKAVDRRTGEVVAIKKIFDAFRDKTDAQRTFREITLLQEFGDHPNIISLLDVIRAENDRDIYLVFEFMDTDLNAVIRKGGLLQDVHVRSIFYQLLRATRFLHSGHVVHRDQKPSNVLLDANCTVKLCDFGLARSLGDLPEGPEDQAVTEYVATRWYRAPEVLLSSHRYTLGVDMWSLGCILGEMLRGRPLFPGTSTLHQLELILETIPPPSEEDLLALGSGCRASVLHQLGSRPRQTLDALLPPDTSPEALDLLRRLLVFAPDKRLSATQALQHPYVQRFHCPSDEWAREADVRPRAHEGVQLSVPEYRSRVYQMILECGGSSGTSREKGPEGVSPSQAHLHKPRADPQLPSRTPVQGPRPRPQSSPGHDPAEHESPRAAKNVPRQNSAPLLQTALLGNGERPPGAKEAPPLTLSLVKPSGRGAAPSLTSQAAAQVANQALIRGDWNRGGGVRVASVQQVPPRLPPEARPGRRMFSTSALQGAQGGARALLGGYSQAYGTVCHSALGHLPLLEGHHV
Description: as §1

[11] = target: 320 wild-type protein kinases (Homo sapiens, UniProt Q96RG2); conditions: PASK, singlicate
Description: as §1

[12] = target: 320 wild-type protein kinases (Homo sapiens, UniProt Q9H3Y6); conditions: kinase SRMS, singlicate
Description: as §1

[13] = target: 320 wild-type protein kinases (Homo sapiens, UniProt Q9P289); conditions: singlicate
Description: as §1

[14] = target: 320 wild-type protein kinases (Homo sapiens, UniProt Q9Y6E0); conditions: singlicate
Description: as §1

Chain of 320 wild-type protein kinases (Homo sapiens, UniProt P23458) (P23458 whole entry, the tested form may be a part): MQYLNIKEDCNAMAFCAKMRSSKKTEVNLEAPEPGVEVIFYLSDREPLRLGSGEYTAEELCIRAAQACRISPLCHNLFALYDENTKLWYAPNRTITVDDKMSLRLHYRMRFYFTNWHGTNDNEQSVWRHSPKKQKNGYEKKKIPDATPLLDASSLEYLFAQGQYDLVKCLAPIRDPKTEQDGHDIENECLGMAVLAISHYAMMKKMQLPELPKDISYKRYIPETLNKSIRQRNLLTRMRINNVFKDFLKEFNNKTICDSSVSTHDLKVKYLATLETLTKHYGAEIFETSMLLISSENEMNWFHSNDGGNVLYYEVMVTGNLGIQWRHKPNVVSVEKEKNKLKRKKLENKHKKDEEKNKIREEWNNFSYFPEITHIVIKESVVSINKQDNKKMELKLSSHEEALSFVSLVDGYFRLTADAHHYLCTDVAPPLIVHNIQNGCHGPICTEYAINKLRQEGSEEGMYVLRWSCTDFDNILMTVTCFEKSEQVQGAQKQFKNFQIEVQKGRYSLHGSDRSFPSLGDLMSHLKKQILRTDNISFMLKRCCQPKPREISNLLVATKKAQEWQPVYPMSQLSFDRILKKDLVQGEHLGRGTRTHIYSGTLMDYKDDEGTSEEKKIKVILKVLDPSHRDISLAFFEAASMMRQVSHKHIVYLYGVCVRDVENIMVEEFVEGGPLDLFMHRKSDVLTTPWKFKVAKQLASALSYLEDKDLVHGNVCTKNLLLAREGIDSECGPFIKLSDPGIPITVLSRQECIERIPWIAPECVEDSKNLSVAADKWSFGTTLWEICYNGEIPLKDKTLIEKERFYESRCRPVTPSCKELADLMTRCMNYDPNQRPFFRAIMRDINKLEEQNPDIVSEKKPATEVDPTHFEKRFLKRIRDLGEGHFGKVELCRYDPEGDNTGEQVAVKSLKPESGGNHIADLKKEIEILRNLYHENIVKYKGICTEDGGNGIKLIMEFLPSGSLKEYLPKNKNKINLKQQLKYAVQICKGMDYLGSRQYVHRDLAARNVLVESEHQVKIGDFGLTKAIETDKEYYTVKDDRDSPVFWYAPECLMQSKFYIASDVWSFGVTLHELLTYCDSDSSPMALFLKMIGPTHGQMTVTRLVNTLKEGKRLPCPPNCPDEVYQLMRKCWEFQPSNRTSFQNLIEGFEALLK
Chain of 320 wild-type protein kinases (Homo sapiens, UniProt Q9Y6E0) (Q9Y6E0 whole entry): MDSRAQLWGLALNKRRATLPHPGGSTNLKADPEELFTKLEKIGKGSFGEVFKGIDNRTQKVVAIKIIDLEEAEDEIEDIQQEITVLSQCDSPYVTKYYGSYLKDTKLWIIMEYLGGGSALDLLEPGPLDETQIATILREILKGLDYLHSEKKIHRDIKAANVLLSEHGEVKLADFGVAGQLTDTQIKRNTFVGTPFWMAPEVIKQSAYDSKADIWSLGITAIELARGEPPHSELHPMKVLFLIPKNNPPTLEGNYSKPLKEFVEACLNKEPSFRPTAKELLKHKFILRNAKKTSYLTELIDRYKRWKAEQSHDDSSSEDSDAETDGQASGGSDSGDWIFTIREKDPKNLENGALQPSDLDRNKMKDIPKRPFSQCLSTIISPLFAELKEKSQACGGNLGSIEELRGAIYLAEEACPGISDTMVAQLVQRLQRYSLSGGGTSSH
Chain of 320 wild-type protein kinases (Homo sapiens, UniProt P78368) (P78368 whole entry): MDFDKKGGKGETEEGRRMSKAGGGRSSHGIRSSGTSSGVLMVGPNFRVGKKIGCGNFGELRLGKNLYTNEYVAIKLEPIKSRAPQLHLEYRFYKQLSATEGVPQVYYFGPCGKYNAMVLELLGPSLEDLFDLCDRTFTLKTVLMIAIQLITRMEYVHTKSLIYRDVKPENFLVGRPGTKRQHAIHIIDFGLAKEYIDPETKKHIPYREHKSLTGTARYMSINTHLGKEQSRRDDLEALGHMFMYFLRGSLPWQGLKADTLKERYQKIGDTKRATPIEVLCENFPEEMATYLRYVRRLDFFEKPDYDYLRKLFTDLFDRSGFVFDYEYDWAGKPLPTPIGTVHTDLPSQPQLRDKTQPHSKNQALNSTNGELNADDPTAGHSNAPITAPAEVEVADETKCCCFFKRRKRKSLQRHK
Chain of 320 wild-type protein kinases (Homo sapiens, UniProt Q00536) (Q00536 whole entry): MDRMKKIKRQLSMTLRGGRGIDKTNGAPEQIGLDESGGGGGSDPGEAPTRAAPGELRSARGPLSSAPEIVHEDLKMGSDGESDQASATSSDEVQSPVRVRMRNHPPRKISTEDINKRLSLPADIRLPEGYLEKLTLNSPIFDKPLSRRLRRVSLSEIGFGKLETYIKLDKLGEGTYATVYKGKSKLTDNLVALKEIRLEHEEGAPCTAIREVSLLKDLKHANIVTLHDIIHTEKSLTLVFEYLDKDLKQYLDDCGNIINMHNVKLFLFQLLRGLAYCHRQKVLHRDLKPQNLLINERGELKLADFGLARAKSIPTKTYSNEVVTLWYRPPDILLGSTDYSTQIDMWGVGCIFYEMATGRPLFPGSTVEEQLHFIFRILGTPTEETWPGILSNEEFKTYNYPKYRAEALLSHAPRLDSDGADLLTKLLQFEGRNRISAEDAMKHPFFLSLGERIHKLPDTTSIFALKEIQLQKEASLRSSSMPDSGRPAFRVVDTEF
Chain of 320 wild-type protein kinases (Homo sapiens, UniProt Q02779) (Q02779 whole entry): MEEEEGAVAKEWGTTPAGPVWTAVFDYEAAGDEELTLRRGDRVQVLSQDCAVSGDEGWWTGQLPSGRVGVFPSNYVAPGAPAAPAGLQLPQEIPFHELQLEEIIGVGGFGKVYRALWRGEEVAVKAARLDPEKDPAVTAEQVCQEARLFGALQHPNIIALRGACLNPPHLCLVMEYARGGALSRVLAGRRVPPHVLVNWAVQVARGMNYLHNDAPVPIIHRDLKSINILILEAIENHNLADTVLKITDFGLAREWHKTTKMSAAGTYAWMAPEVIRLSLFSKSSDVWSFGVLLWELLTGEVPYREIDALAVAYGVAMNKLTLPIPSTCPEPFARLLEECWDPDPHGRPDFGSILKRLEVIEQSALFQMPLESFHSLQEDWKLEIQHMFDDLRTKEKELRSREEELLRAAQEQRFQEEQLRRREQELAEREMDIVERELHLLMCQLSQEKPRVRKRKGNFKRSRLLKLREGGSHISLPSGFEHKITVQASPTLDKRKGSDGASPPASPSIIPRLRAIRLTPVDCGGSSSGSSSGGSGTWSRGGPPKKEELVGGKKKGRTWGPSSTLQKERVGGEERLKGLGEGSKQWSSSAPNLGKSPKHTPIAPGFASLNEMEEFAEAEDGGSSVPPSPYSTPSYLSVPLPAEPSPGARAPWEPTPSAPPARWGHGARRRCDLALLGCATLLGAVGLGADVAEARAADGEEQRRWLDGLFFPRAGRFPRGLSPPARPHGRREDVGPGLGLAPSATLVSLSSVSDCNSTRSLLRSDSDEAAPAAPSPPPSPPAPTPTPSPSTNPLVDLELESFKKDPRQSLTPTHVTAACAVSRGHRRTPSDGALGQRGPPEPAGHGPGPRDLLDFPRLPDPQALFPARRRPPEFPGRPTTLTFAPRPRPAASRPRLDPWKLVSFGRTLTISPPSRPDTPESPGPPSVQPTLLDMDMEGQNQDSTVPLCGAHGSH
Chain of 320 wild-type protein kinases (Homo sapiens, UniProt Q9H3Y6) (Q9H3Y6 whole entry): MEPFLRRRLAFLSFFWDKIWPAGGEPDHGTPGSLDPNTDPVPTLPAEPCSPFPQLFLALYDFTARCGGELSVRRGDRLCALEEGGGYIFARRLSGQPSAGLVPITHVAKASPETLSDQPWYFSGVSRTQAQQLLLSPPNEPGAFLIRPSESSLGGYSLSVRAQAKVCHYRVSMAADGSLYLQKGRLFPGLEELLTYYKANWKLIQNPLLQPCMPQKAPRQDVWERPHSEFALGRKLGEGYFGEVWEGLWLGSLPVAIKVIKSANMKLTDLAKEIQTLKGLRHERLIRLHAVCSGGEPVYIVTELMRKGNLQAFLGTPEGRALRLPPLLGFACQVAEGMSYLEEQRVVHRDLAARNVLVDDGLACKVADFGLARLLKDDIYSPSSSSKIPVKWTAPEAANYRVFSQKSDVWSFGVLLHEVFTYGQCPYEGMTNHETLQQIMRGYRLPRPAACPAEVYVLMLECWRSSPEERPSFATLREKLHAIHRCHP
Chain of 320 wild-type protein kinases (Homo sapiens, UniProt Q9P289) (Q9P289 whole entry): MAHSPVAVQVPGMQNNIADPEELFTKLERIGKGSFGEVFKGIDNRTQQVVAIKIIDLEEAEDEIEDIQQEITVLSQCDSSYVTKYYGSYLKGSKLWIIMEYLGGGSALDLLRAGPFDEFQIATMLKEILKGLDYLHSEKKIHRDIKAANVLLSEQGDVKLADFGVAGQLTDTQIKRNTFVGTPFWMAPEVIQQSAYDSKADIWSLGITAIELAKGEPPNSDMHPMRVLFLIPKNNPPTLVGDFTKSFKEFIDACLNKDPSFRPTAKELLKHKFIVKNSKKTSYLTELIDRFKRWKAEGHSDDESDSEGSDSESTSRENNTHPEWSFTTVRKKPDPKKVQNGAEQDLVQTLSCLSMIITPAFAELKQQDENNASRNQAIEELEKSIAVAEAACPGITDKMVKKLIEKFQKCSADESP
Chain of 320 wild-type protein kinases (Homo sapiens, UniProt Q8IU85) (Q8IU85 whole entry): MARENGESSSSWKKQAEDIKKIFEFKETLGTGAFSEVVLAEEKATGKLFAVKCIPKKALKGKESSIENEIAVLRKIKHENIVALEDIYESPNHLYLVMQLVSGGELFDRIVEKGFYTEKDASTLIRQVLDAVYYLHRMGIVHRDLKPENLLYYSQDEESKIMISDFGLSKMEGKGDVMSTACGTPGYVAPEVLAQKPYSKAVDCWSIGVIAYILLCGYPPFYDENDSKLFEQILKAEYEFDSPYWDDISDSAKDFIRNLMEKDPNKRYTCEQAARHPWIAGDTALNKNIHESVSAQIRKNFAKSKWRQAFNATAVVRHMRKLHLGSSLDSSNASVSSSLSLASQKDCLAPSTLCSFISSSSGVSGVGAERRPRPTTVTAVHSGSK

| SMILES | Residual activity ([1]; ABL1, 1.0E-06 M) | Residual activity ([1]; ABL1, 1.0E-07 M) | Residual activity ([2]; 1.0E-06 M) | Residual activity ([2]; 1.0E-07 M) | Residual activity ([3]; EPHA3, 1.0E-06 M) | Residual activity ([3]; EPHA3, 1.0E-07 M) | Residual activity ([4]; CK1-gamma2, 1.0E-06 M) | Residual activity ([4]; CK1-gamma2, 1.0E-07 M) | Residual activity ([5]; 1.0E-06 M) | Residual activity ([5]; 1.0E-07 M) | Residual activity ([6]; MAP3K10, 1.0E-06 M) | Residual activity ([6]; MAP3K10, 1.0E-07 M) | Residual activity ([7]; 1.0E-06 M) | Residual activity ([7]; 1.0E-07 M) | Residual activity, TTBK2 ([8]; assay conc. 1.0E-06 M) | Residual activity, TTBK2 ([8]; assay conc. 1.0E-07 M) | Residual activity ([9]; 1.0E-06 M) | Residual activity ([9]; 1.0E-07 M) | Residual activity ([10]; ERK7, 1.0E-06 M) | Residual activity ([10]; ERK7, 1.0E-07 M) | other results |
| --- | --- | --- | --- | --- | --- | --- | --- | --- | --- | --- | --- | --- | --- | --- | --- | --- | --- | --- | --- | --- | --- |
| C#Cc1cc(Nc2ncnc3cc(I)ccc23)ccc1Cl [Compound 41] | 72 % of control | 85 % of control | 90 % of control | 98 % of control | 119 % of control | 118 % of control | 112 % of control | 119 % of control | 84 % of control | 84 % of control | 93 % of control | 102 % of control | 86 % of control | 84 % of control | 101 % of control | 102 % of control | 77 % of control | 86 % of control | 96 % of control | 94 % of control | Residual activity ([11]; 1.0E-06 M): 101 % of control; Residual activity ([11]; 1.0E-07 M): 102 % of control; Residual activity, SRMS ([12]; assay conc. 1.0E-06 M): 98 % of control; Residual activity, SRMS ([12]; assay conc. 1.0E-07 M): 113 % of control; Residual activity ([13]; MST4, 1.0E-06 M): 89 % of control; Residual activity ([13]; MST4, 1.0E-07 M): 101 % of control; Residual activity ([14]; MST3, 1.0E-06 M): 104 % of control; Residual activity ([14]; MST3, 1.0E-07 M): 116 % of control |
| C#Cc1cc(Nc2ncnc3cc(OC)c(OC)cc23)ccc1Cl [Compound 45] | 59 % of control | 100 % of control | 102 % of control | 111 % of control | 111 % of control | 128 % of control | 109 % of control | 111 % of control | 90 % of control | 86 % of control | 86 % of control | 92 % of control | 103 % of control | 81 % of control | 95 % of control | 96 % of control | 84 % of control | 99 % of control | 90 % of control | 104 % of control | Residual activity ([11]; 1.0E-06 M): 93 % of control; Residual activity ([11]; 1.0E-07 M): 98 % of control; Residual activity, SRMS ([12]; assay conc. 1.0E-06 M): 103 % of control; Residual activity, SRMS ([12]; assay conc. 1.0E-07 M): 124 % of control; Residual activity ([13]; MST4, 1.0E-06 M): 97 % of control; Residual activity ([13]; MST4, 1.0E-07 M): 92 % of control; Residual activity ([14]; MST3, 1.0E-06 M): 94 % of control; Residual activity ([14]; MST3, 1.0E-07 M): 93 % of control |
